From ChEMBL document CHEMBL5727118, “Benzoic acid derivatives of bile acid as FXR/TGR5 agonists and methods of use thereof” (2019)

Biological target: T1, Bile acid receptor (Homo sapiens, UniProt Q96RI1)
T1 sequence (Q96RI1 whole entry): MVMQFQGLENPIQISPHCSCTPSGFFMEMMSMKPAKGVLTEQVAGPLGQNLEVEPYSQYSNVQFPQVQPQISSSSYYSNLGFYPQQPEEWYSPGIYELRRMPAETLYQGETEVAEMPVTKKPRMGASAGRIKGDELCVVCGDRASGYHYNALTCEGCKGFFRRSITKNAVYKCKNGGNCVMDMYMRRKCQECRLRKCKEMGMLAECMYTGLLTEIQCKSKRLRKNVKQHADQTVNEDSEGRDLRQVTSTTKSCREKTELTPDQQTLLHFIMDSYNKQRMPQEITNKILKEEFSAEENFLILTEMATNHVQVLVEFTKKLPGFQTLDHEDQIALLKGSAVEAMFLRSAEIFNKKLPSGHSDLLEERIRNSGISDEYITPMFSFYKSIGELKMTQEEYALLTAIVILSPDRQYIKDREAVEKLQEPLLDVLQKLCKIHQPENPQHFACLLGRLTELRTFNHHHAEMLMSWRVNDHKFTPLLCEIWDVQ
Test: FXR Reporter Assay kit purchased from Indigo Bioscience (Catalogue number: IB00601) to determine the potency and efficacy of compound developed by Enanta that can induce FXR activation. The principle application of this reporter assay system is to quantify functional activity of human FXR. The assay utilizes non-human mammalian cells, CHO (Chinese hamster ovary) cells engineered to express human NR1H4 protein (referred to as FXR). Reporter cells also incorporate the cDNA encoding beetle luciferase which catalyzes the substrates and yields photon emission. Luminescence intensity of the reaction is quantified using a plate-reading luminometer, Envision. Reporter Cells include the luciferase reporter gene functionally linked to an FXR responsive promoter. Thus, quantifying changes in luciferase expression in the treated reporter cells provides a sensitive surrogate measure of the changes in FXR activity. […] The assay is according to the manufacturer's instructions. In brief, the assay was performed in white, 96 well plates using final volume of 100 ul containing cells with different doses of compounds. Retrieve Reporter Cells from −80° C. storage. Perform a rapid thaw of the frozen cells by transferring a 10 ml volume of 37° C. cell recovery medium into the tube of frozen cells. Recap the tube of Reporter Cells and immediately place it in a 37° C. water bath for 5-10 minutes. […]
Format: cell-based

## CC[C@H]1[C@@H](O)[C@@H]2[C@H](CC[C@]3(C)[C@@H]([C@H](C)C/C=C/c4ccc(F)cc4C(=O)O)CC[C@@H]23)[C@@]2(C)CC[C@@H](O)C[C@@H]12
  EC50: < 100 nM
